# Source: US11524966B1 (Valo Early Discovery, Inc., priority 2017, dated 2022)
# Target: T1, USP28 (His-tagged USP28-FL-mammalian) (Homo sapiens, UniProt Q96RU2)
# T1 construct: Expression of USP28 (1-1077)-TEV-6*His (pTT5 vector); made in house; host or cells: Expi293f cells (pTT5 vector)
# T1 sequence (Q96RU2 1-1077): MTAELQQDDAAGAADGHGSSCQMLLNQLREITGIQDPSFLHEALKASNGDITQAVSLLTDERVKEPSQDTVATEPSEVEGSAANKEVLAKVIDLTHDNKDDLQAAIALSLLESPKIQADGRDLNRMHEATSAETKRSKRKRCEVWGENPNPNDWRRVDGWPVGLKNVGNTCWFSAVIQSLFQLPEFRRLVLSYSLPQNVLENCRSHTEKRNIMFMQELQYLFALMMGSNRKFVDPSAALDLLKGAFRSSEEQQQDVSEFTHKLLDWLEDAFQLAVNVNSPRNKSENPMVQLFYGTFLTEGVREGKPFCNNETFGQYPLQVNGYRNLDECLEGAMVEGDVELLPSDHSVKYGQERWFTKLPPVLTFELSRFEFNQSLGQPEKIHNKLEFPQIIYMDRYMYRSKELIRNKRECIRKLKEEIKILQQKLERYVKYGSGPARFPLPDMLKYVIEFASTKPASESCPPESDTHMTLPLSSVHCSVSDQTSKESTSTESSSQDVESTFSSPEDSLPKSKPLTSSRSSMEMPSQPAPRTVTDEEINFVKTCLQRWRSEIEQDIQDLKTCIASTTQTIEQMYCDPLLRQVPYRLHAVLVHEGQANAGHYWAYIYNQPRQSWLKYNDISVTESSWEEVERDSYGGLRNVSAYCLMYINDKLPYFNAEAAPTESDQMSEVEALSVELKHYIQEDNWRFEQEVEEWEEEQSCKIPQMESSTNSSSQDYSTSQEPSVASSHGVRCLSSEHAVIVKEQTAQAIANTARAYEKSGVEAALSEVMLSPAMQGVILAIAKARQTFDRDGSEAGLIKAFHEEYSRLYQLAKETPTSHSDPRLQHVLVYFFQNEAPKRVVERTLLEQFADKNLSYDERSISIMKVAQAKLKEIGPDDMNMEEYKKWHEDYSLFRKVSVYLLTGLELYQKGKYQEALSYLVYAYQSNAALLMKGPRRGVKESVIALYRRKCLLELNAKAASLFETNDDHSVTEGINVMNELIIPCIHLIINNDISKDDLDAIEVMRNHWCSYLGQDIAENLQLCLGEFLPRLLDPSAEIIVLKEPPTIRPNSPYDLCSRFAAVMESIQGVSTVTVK
# Assay: Ubiquitin-Rhodamine 110 Assay for USP28 Activity, Example A-1(a)
# Type: biochemical
# Settings: Ubiquitin-Rhodamine 110 assay, Example A-1(a); read-out: USP28 A-1(a) IC50 range
# How it was run: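 IC50 from 4-parameter logistic fit of percent inhibition versus no-enzyme and DMSO controls; compounds 25 μM to 1.3 nM, 3-fold. Ub-Rh110 cleavage (25 nM, below Km) by […] mammalian-expressed USP28-FL-His ran 45 min at room temperature, stopped with 10 mM citric acid, read ex 485/em 535.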
row,Compound,IC50 [nM]
1,"Cc1nc2sc(C(=O)N[C@H]3COc4c(F)c(N5CC6CCC(C5)N6)cc(F)c4C3)c(N)c2s1 [Example 98, 6-amino-N-[(3R)-7-{3,8-diazabicyclo[3.2.1]octan-3-yl}-5,8-difluoro-3,4-dihydro-2H-1-benzopyran-3-yl]-2-methylthieno[2,3-d][1, 3]thiazole-5-carboxamide]",1 to 50
2,"Cc1ccc2c(N)c(C(=O)N[C@H]3COc4cc(N5CCNCC5)cc(F)c4C3)oc2n1 [Example 169, 3-amino-N-[(3R)-5-fluoro-7-(piperazin-1-yl)-3,4-dihydro-2H-1-benzopyran-3-yl]-6-methylfuro[2,3-b]pyridine-2-carboxamide]",200 to 2000
3,"Cc1ccc2c(N)c(C(=O)N[C@H]3COc4cc(N5C[C@@H](N)[C@@H](C(F)F)C5)ccc4C3)sc2n1 [Example 168, 3-amino-N-[(3R)-7-[(3S,4S)-3-amino-4-(difluoromethyl)pyrrolidin-1-yl]-3,4-dihydro-2H-1-benzopyran-3-yl]-6-methylthieno[2,3-b]pyridine-2-carboxamide]",1 to 50
4,"CO[C@H]1CN(c2cc3c(cc2C#N)C[C@@H](NC(=O)c2sc4nc(C)cnc4c2N)CO3)C[C@@H]1N [Example 176, 7-amino-N-[(3R)-7-[(3S,4S)-3-amino-4-methoxypyrrolidin-1-yl]-6-cyano-3,4-dihydro-2H-1-benzopyran-3-yl]-3-methylthieno[2,3-b]pyrazine-6-carboxamide]",1 to 50
5,"Cc1ccc2c(N)c(C(=O)N[C@H]3COc4cc(N5CC6CCC(C5)N6)c(F)cc4C3)sc2n1 [Example 104, 3-amino-N-[(3R)-7-{3,8-diazabicyclo[3.2.1]octan-3-yl]-6-fluoro-3,4-dihydro-2H-1-benzopyran-3-yl]-6-methylthieno[2,3-b]pyridine-2-carboxamide]",1 to 50
6,"CO[C@@H]1CN(c2ccc3c(c2)OC[C@H](NC(=O)c2sc4nc(C)ccc4c2N)C3)C[C@@H]1N [Example 121, 3-amino-N-[(3R)-7-[(3S,4R)-3-amino-4-methoxypyrrolidin-1-yl]-3,4-dihydro-2H-1-benzopyran-3-yl]-6-methylthieno[2,3-b]pyridine-2-carboxamide]",1 to 50
7,"Cc1cc(C)c2c(N)c(C(=O)N[C@@H]3COc4cc(N5CCNCC5)c(F)c(F)c4C3)sc2n1 [Example 160, 3-amino-N-[(3S)-5,6-difluoro-7-(piperazin-1-yl)-3,4-dihydro-2H-1-benzopyran-3-yl]-4,6-dimethylthieno[2,3-b]pyridine-2-carboxamide]",1 to 50
8,"CCn1ccc2cc(C(=O)N[C@H]3CCc4cc(N5C[C@H](OC)[C@@H](N)C5)cc(F)c4C3)nnc21 [Example 138, N-[(2S)-6-[(3S,4S)-3-amino-4-methoxypyrrolidin-1-yl]-8-fluoro-1,2,3,4-tetrahydronaphthalen-2-yl]-7-ethyl-7H-pyrrolo[2,3-c]pyridazine-3-carboxamide]",> 2000
9,"Cc1ccc2c(N)c(C(=O)N[C@H]3COc4cc(N5C[C@H](N)[C@H](C(F)F)C5)ccc4C3)sc2n1 [Example 167, 3-amino-N-[(3R)-7-[(3R,4R)-3-amino-4-(difluoromethyl)pyrrolidin-1-yl]-3,4-dihydro-2H-1-benzopyran-3-yl]-6-methylthieno[2,3-b]pyridine-2-carboxamide]",1 to 50
10,"Cc1ccc2c(N)c(C(=O)N[C@H]3COc4nc(N5CC6CCC(C5)N6)ccc4C3)sc2n1 [Example 173, 3-amino-N-[(3R)-7-{3,8-diazabicyclo[3.2.1]octan-3-yl]-2H,3H,4H-pyrano[2,3-b]pyridin-3-yl]-6-methylthieno[2,3-b]pyridine-2-carboxamide]",50 to 200
11,"Cc1ccc2c(N)c(C(=O)N[C@H]3COc4cc([C@H]5C[C@H](N)C5)ccc4C3)sc2n1 [Example 124, 3-amino-6-methyl-N-[(3R)-7-[(1r,3r)-3-aminocyclobutyl]-3,4-dihydro-2H-1-benzopyran-3-yl]thieno[2,3-b]pyridine-2-carboxamide]",1 to 50
12,"CO[C@H]1CN(c2ccc3c(c2)CC[C@H](NC(=O)c2sc4nc(C)cnc4c2N)C3)C[C@@H]1N [Example 130, 7-amino-N-[(2S)-6-[(3S,4S)-3-amino-4-methoxypyrrolidin-1-yl]-1,2,3,4-tetrahydronaphthalen-2-yl]-3-methylthieno[2,3-b]pyrazine-6-carboxamide]",50 to 200
13,"Cc1ccc2c(N)c(C(=O)N[C@H]3COc4cc(N5C[C@@H]6OCCN[C@@H]6C5)ccc4C3)sc2n1 [Example 154, N-[(3R)-7-[(4aR,7aS)-octahydropyrrolo[3,4-b]morpholin-6-yl]-3,4-dihydro-2H-1-benzopyran-3-yl]-3-amino-6-methylthieno[2,3-b]pyridine-2-carboxamide]",50 to 200
14,"Cc1ccc2c(N)c(C(=O)N[C@H]3COc4cc(N5C[C@@H]6NCCO[C@@H]6C5)ccc4C3)sc2n1 [Example 153, N-[(3R)-7-[(4aS,7aR)-octahydropyrrolo[3,4-b]morpholin-6-yl]-3,4-dihydro-2H-1-benzopyran-3-yl]-3-amino-6-methylthieno[2,3-b]pyridine-2-carboxamide]",50 to 200
15,"COC[C@@H]1CN(c2ccc3c(c2)OC[C@H](NC(=O)c2sc4nc(C)ccc4c2N)C3)C[C@@H]1N [Example 161, 3-amino-N-[(3R)-7-[(3R,4R)-3-amino-4(methoxymethyl)pyrrolidin-1-yl]-3,4-dihydro-2H-1-benzopyran-3-yl]-6-methylthieno[2,3-b]pyridine-2-carboxamide]",1 to 50
16,"COc1nc2sc(C(=O)N[C@H]3CCc4cc(N5C[C@H](OC)[C@@H](N)C5)ccc4C3)c(N)c2cc1F [Example 135, 3-amino-N-[(2S)-6-[(3S,4S)-3-amino-4-methoxypyrrolidin-1-yl]-1,2,3,4-tetrahydronaphthalen-2-yl]-5-fluoro-6-methoxythieno[2,3-b]pyridine-2-carboxamide]",200 to 2000
17,"Cc1ccc2c(N)c(C(=O)N[C@H]3COc4c(C#N)c(N5CC6CNCC(C5)O6)cc(F)c4C3)sc2n1 [Example 96, 3-amino-N-[(3R)-8-cyano-5-fluoro-7-{9-oxa-3,7-diazabicyclo[3.3.1]nonan-3-yl}-3,4-dihydro-2H-1-benzopyran-3-yl]-6-methylthieno[2,3-b]pyridine-2-carboxamide]",1 to 50
18,"Cc1cc(C)c2c(N)c(C(=O)N[C@H]3COc4cc(N5CCNCC5)c(F)c(F)c4C3)sc2n1 [Example 159, 3-amino-N-[(3R)-5,6-difluoro-7-(piperazin-1-yl)-3,4-dihydro-2H-1-benzopyran-3-yl]-4,6-dimethylthieno[2,3-b]pyridine-2-carboxamide]",> 2000
19,"Cc1nc2sc(C(=O)N[C@H]3COc4cc(N5CC6CCC(C5)N6)c(F)c(F)c4C3)c(N)c2s1 [Example 108, 6-amino-N-[(3R)-7-{3,8-diazabicyclo[3.2.1]octan-3-yl}-5,6-difluoro-3,4-dihydro-2H-1-benzopyran-3-yl]-2-methylthieno[2,3-d][1,3]thiazole-5-carboxamide]",1 to 50
20,"Cc1ccc2c(N)c(C(=O)N[C@H]3CCc4c(ccc(N5CC6CNCC(C5)O6)c4C#N)C3)sc2n1 [Example 102, 3-amino-N-[(2S)-5-cyano-6-{9-oxa-3,7-diazabicyclo[3.3.1]nonan-3-yl}-1,2,3,4-tetrahydronaphthalen-2-yl]-6-methylthieno[2,3-b]pyridine-2-carboxamide]",1 to 50
21,"COc1ccc2c(N)c(C(=O)N[C@H]3CCc4cc(N5C[C@H](OC)[C@@H](N)C5)ccc4C3)sc2n1 [Example 134, 3-amino-N-[(2S)-6-[(3S,4S)-3-amino-4-methoxypyrrolidin-1-yl]-1,2,3,4-tetrahydronaphthalen-2-yl]-6-methoxythieno[2,3-b]pyridine-2-carboxamide]",200 to 2000
22,"COC[C@@H]1CNCCN1c1ccc2c(c1)OC[C@H](NC(=O)c1sc3nc(C)ccc3c1N)C2 [Example 155, 3-amino-N-[(3R)-7-[(2S)-2-(methoxymethyl)piperazin-1-yl]-3,4-dihydro-2H-1-benzopyran-3-yl]-6-methylthieno[2,3-b]pyridine-2-carboxamide]",1 to 50
